The record followed here is ChEMBL document CHEMBL4190285, “Borapetoside E, a Clerodane Diterpenoid Extracted from Tinospora crispa, Improves Hyperglycemia and Hyperlipidemia in High-Fat-Diet-Induced Type 2 Diabetes Mice” (J Nat Prod, 2017).

Assay [1] relates to Mus musculus. Put plainly: Antihyperlipidemic activity in high fat diet-induced obese C57BL/6J mouse assessed as serum triglyceride levels at 200 mg/kg, ip administered twice daily for 2.5 days measured at 2 hrs post last dose (reference value: 1.31 +/- 0.48 mmol/L). It counts as functional.
Assay [2] relates to Mus musculus. Put plainly: Antihyperlipidemic activity in high fat diet-induced obese C57BL/6J mouse assessed as serum LDL-C levels at 200 mg/kg, ip administered twice daily for 2.5 days measured at 2 hrs post last dose (reference value: 2.54 +/- 0.87 mmol/L). The class given is functional.
Assay [3] relates to Mus musculus. Put plainly: Antihyperlipidemic activity in high fat diet-induced obese C57BL/6J mouse assessed as serum HDL-C levels at 200 mg/kg, ip administered twice daily for 2.5 days measured at 2 hrs post last dose (reference value: 1.82 +/- 0.58 mmol/L). The class given is functional.
The subject of assay [4] is Mus musculus. Put plainly: Antihyperlipidemic activity in high fat diet-induced obese C57BL/6J mouse assessed as serum total cholesterol levels at 200 mg/kg, ip administered twice daily for 2.5 days measured at 2 hrs post last dose (reference value: 4.56 +/- 1.01 mmol/L). It counts as functional.
The test system of assay [5] is Mus musculus. The experiment in a line: Antihyperlipidemic activity in high fat diet-induced obese C57BL/6J mouse assessed as serum free fatty acid levels at 200 mg/kg, ip administered twice daily for 2.5 days measured at 2 hrs post last dose (reference value: 1.41 +/- 0.3 mmol/L). The class given is functional.
Assay [6] relates to Mus musculus. Put plainly: Antihyperglycemic activity in high fat diet-induced obese C57BL/6J mouse assessed as reduction in blood glucose level at 200 mg/kg, ig administered as single dose. The class given is functional, organism-based.
The subject of assay [7] is Mus musculus. Put plainly: Antihyperglycemic activity in high fat diet-induced obese C57BL/6J mouse assessed as reduction in blood glucose level at 200 mg/kg, ig administered twice daily for 2.5 days measured up to 5 days post last dose. It counts as functional, organism-based.

Activity calls are given as the source filed them. No cut-off for these calls is given here.

For the compound `CN(C)C(=N)NC(=N)N` [METFORMIN], the Activity is 0.97 mmol/L in the assay on Mus musculus [1]; 2.93 mmol/L with Mus musculus [2]; 2.14 mmol/L in the assay on Mus musculus [3]; 4.47 mmol/L in the assay on Mus musculus [4]; 1.18 mmol/L in the assay with Mus musculus [5]. The result with Mus musculus [6] and in the assay with Mus musculus [7] was Active.
